Results: US10112978B2, “Peptide and use thereof” (OSAKA UNIVERSITY, priority 2014, dated 2018)

Legend:
[1] = tested on: PMA-differentiated THP-1 cells; experiment: Cytokine and chemokine production in PMA-differentiated THP-1 cells (ELISA); assay type: cell-based, human
Method: THP-1 cells were suspended at 5×10^5 cells/mL in RPMI1640 medium containing 50 ng/mL PMA (phorbol 12-myristate 13-acetate) and 10% FBS, and seeded at 5×10^5 cells/well on a 24-well plate. The cells were cultured in a CO2 incubator for 2 days for differentiation into macrophages. After the 2-day culture, the medium was removed, an OSK-1 solution in RPMI1640 medium containing 10% FBS was added to the wells, and overnight culture was performed. Sixteen hours after the addition, the culture supernatant was harvested, and the cytokine concentrations in the supernatant were measured by ELISA.
The experiment in this example was performed in the same manner as in Example 3, and the IL-1β, IL-18, TNFα, IL-6, RANTES, MIP-1α and MIP-1β concentrations in the culture supernatant were measured.

[2] = tested on: NFκB; experiment: Activation of NFκB in THP-1 cells (TNFα production with or without NFκB inhibitors); assay type: cell-based, human; conditions: for production of TNFα: OSK-1 100 ng/mL
Method: THP-1 cells were diluted to 5×10^5 cells in 500 μL of RPMI1640 medium containing 10% FBS, and the cell suspension was added to a 24-well plate at 500 μL/well. QNZ (Enzo, final concentration: 10 μM) in RPMI1640 medium containing 10% FBS, BAY11-7082 (Enzo, final concentration: 10 μM) in RPMI1640 medium containing 10% FBS and RPMI1640 medium containing 10% FBS were added to the plate, and the cells were cultured for 2.5 hours. OSK-1 was added to the wells at a final concentration of 100 ng/mL, and the cells were cultured for 2 hours. After that, the culture supernatant was harvested, and the TNFα concentration in the supernatant was measured by ELISA.

[3] = tested on: C57BL/6 mice; experiment: Induction of WT1-specific immunity in mice (ELISpot of splenocytes); assay type: in vivo; conditions: group (3): WT1 peptide 15 μg/mouse + OSK-1 100 μg/mouse, once a week for 4 weeks
Method: The OSK-1 peptide and a WT1 peptide were conjugated via ε-Acp as a spacer to form an “OSK-1-WT1 conjugate vaccine”. The OSK-1-WT1 conjugate vaccine was evaluated for the ability to induce WT1-specific immunity in mice. Mice were divided into the following 5 groups (3 animals per group): (1) physiological saline, (2) WT1 peptide (15 μg/mouse)+Incomplete Freund's Adjuvant (IFA, SIGMA; Cat#F5506, 50 μL/mouse), (3) WT1 peptide (15 μg/mouse)+OSK-1 (100 μg/mouse), (4) OSK-1-WT1 conjugate vaccine (50 μg/mouse), and (5) OSK-1-WT1 conjugate vaccine (300 μg/mouse). In each group, the test substance was administered to C57BL/6 mice once a week for 4 weeks. At 2 weeks after the 4th administration, the spleen was excised from each immunized mouse, and the ELISpot assay was performed. The specific procedure is as follows. Splenocytes were prepared from the excised spleen and seeded on a filter plate coated with an anti-IL-4 antibody or an anti-IFNγ antibody. The WT1 peptide or the OSK-1-WT1 peptide was added to the wells, and the splenocytes were cultured for 3 days. After that, each well of the filter plate was stained and the spots of IL-4- or IFNγ-producing cells was counted.

[4] = tested on: LPS-primed THP-1 cells; experiment: Cytokine production in LPS-primed THP-1 cells (ELISA of culture supernatant); assay type: cell-based, human
Method: Human monocyte cell line THP-1 (JCRB registration number: JCRB0112) was suspended at 1×10^6 cells/mL in RPMI1640 medium containing 1 μg/mL lipopolysaccharide (LPS) and 10% FBS, and incubated in a CO2 incubator for 3 hours for cell priming. The cell suspension was centrifugated, the cells were resuspended at 1×10^6 cells/mL in RPMI1640 medium containing 10% FBS, and the cell suspension was added to a 24-well plate at 500 μL/well. An OSK-1 solution was prepared at a 2-fold higher concentration than the final concentration in RPMI1640 medium containing 10% FBS and added to the plate at 500 μL/well. After about 16 hours, the culture supernatant was harvested, and the cytokine concentrations in the supernatant were measured by ELISA.
THP-1 cells were suspended at 1×10^6 cells/mL in RPMI1640 medium containing 1 μg/mL LPS and 10% FBS, and incubated in a CO2 incubator for 3 hours for cell priming. The cell suspension was centrifugated, the cells were resuspended at 1×10^6 cells/mL in RPMI1640 medium containing 10% FBS, and the cell suspension was added to a 24-well plate at 500 μL/well. […] After about 16 hours, the culture supernatant was harvested, and the cytokine concentrations in the supernatant were measured by ELISA.

[5] = tested on: mouse bone marrow-derived dendritic cells; experiment: Cytokine production in mouse bone marrow-derived dendritic cells (ELISA); assay type: cell-based; conditions: about 16 hours
Method: Bone marrow cells were harvested from the thigh bone of a C57BL/6 mouse, seeded in RPMI1640 medium containing […] GM-CSF (granulocyte macrophage colony-stimulating factor) and 10% FBS, and cultured for 3 days. After the 3-day culture, a fresh medium was added and culture was continued for additional 4 days. The cells not adherent on the culture plate were harvested and regarded as bone marrow-derived dendritic cells. The cells were suspended at 2×10^6 cells/mL in RPMI1640 medium containing 10% FBS, and the cell suspension was added to a 24-well plate at 500 μL/well. An OSK-1 solution was prepared at a 2-fold higher concentration than the final concentration in RPMI1640 medium containing 10% FBS and added to the plate at 500 μL/well. After about 16 hours, the culture supernatant was harvested, and the cytokine concentrations in the supernatant were measured by ELISA.

[6] = compared with alum or the CpG nucleotide

## ELKLIFLHRLKRLRKRLKRK (Ac-ELKLIFLHRLKRLRKRLKRK-NH2) [OSK-1]
[1]; Example 11, ELISA
  production of the chemokines and cytokines (IL-1β, IL-18, TNFα, IL-6, RANTES, MIP-1α and MIP-1β): induced the production of the chemokines and cytokines in the PMA-differentiated THP-1 cells in an OSK-1 concentration dependent manner
[1]; OSK-1 at 30 μg/mL, 16 hours, ELISA
  production of the cytokines (IL-1β, IL-18, TNFα and IL-6 concentrations in the culture supernatant): strongly induced the production of the cytokines
[2]; 2 hours
  production of TNFα: induced the production of TNFα
[2]; in the presence of NFκB inhibitor BAY11-7082 10 μM
  production of TNFα: inhibited in the presence of the NFκB inhibitor QNZ or BAY11-7082
[2]; in the presence of NFκB inhibitor QNZ 10 μM
  production of TNFα: inhibited in the presence of the NFκB inhibitor QNZ
[2]; concluded from TNFα production with and without NFκB inhibitors
  activating NFκB: effective for activating NFκB
[3]
  IFNγ-producing cells in response to stimulation with the WT1 peptide (ELISpot): more cells produced IFNγ in response to the stimulation with the WT1 peptide
[4]; about 16 hours, ELISA
  production of the cytokines (IL-1β, IL-18, TNFα and IL-6 concentrations in the culture supernatant): induce the production of the cytokines in the LPS-primed THP-1 cells in an OSK-1 concentration dependent manner
[4]; [6]
  production of IL-1β: more strongly induced
  production of TNFα: more strongly induced
[5]
  production of the cytokines (IL-1β, IFNγ, TNFα, IL-6 and IL-12p70): induced the production of the cytokines in the mouse bone marrow-derived dendritic cells in an OSK-1 concentration dependent manner
